The test system of experiment [1] is imMKCL. In words: HDAC6 inhibitor addition in shaking flask culture: number of platelets. It is filed as cell-based, human. The note with it: for number of platelets produced: added in a concentration of 100 nM or more to a medium. Here is the method: After turning genes (c-MYC, BMI1, and BCL-XL) off, 1×10^5 cells/ml of imMKCL was seeded in a flask to carry out shaking flask culture using a platelet producing medium. The culture was carried out under the shaking conditions of 100 rpm, 37° C., and 5% CO2. To the platelet producing medium, BML-281 1 nM, 10 nM, or 100 nM, or Nexturastat A 20 nM was added as an HDAC6 inhibitor at the time of starting the culture. […] The number of platelets was measured on Day 6 after addition of these HDAC6 inhibitors.
(§1) After turning genes (c-MYC, BMI1, and BCL-XL) off, 1×10^5 cells/ml of imMKCL was seeded in a flask to carry out shaking flask culture using a platelet producing medium under a shaking condition of 100 rpm. Further, after turning genes (c-MYC, BMI1, and BCL-XL) off, 1×10^5 cells/ml of imMKCL was seeded in a culture dish to carry out static culture. For both shaking culture and static culture, BML-281 100 nM, or Nexturastat A 500 nM, 1 μM, or 2 μM was added at the time of starting the cultures. The number of platelets was measured on Day 6 from addition of these HDAC6 inhibitors. Additionally, Annexin V positive ratios of the obtained platelets were measured.
(§2) Subsequently, in order to examine in more detail which process in megakaryocyte maturation is affected by the HDAC6 inhibitor, the timing of adding Nexturastat A 2 μM during the flask culture was changed to Day 3, Day 4, and Day 5 from the start of the culture after the gene off and the effect on the amount of platelets to be produced was studied. Culture conditions other than the timing of adding HDAC6 inhibitors were the same as those in the experiment referring to FIGS. 21 to 24. […] In FIG. 24, panel (c), PPF was recognized at Day 5 in static culture. In view of this, the effect available at the time of shedding platelets (presumed mechanism) seems to be about 40%.

The test system of experiment [2] is imMKCL. In words: HDAC6 inhibitor addition in static culture: cell morphology by microscope. The note with it: for degree of hypertrophy: versus DMSO group; for cell morphology (apoptosis, hypertrophy): Day 3 from gene off; for PPF associated with megakaryocyte maturation: Day 5 from gene off. It is filed as cell-based, human. Here is the method:
To confirm if apoptosis was caused due to the drug addition, cell morphology was observed when dimethyl sulfoxide (DMSO) was used as a solvent control of the drug or an HDAC6 inhibitor was added at the time of starting the culture in the platelet producing medium in a static culture under the same conditions as above. […] In the photograph, cell hypertrophy associated with megakaryocyte maturation is observed. […] PPF associated with megakaryocyte maturation is recognized. FIG. 24, panels (e) and (f) show cell morphology on Day 5 from the gene off static culture to which BML-281 100 nM was added and to which Nexturastat A 2 μM was added, respectively. […] Additionally, when an HDAC6 inhibitor was added, the degree of megakaryocyte maturation is rather hindered but proceeds to hypertrophy. Based on the above findings, HDAC6, seems to have role in the proplatelet formation.

In the next experiment the target is T1, HDAC6 (Homo sapiens, UniProt Q9UBN7).
T1 sequence (Q9UBN7 1-1215): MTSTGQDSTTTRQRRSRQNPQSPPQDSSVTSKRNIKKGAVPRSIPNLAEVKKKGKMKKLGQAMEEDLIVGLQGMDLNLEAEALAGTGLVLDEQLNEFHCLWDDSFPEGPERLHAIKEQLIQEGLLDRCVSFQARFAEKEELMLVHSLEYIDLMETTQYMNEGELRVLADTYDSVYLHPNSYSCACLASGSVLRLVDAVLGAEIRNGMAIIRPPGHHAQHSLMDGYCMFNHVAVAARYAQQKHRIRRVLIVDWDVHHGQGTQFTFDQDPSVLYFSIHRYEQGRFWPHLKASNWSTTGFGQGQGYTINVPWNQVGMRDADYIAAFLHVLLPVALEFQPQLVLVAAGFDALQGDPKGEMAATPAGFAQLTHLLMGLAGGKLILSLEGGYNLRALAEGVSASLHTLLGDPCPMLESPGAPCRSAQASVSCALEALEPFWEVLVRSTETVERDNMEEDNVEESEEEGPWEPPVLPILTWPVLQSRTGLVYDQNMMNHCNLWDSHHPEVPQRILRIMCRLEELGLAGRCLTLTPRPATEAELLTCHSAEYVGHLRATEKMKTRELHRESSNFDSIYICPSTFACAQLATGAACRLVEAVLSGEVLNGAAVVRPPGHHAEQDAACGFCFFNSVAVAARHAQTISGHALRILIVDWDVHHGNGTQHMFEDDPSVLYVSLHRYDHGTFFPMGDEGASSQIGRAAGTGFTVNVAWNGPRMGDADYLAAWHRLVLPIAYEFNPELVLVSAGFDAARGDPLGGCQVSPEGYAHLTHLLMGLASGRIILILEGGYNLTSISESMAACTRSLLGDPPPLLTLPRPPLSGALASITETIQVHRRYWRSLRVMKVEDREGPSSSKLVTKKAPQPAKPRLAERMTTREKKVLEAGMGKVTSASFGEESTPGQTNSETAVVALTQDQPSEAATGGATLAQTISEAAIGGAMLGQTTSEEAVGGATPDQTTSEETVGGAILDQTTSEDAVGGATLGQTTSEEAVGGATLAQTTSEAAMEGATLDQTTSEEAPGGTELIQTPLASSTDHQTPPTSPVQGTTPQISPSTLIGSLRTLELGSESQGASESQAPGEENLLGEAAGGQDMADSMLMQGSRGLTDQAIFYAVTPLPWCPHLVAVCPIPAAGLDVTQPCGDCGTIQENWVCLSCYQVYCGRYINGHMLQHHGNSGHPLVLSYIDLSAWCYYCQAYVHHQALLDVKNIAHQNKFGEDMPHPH
The note with it: cited from earlier work.

The subject of experiment [3] is imMKCL. In words: HDAC6 inhibitor addition in static culture (Dish): number of platelets. It is filed as cell-based, human. Here is the method:
as §1, §2

Regarding `CC(C)(C)OC(=O)Nc1ccc(-c2cc(C(=O)NCCCCCCC(=O)NO)no2)cc1` [BML-281, N-Hydroxy-7-[5-(4-tertbutoxycarbonylaminophenyl)-3-isoxazolecarboxamido]heptanamide], in the experiment on imMKCL [1], the “number of platelets produced” value is recorded as “considerably suppress the number of platelets produced”. Further, the “platelet production (number of platelets on Day 6)” value in the experiment with imMKCL [1] (shaking flask culture, 100 nM added at start of culture) was “notable reduction in the platelet production”. Also, the degree of hypertrophy result in the experiment on imMKCL [2] (Day 3, 100 nM) is listed as “slightly lower than the group containing DMSO”. In the experiment with imMKCL [2] (100 nM), the “cell morphology (apoptosis, hypertrophy)” value is “Apoptosis is not recognized but cell hypertrophy is recognized” and the “PPF associated with megakaryocyte maturation” value was “not recognized”. For the same molecule, the “known HDAC inhibition” value on HDAC6 was “inhibit HDAC6, 1, 2, 7, 8, and 10”.

In the case of `CCCCN(Cc1ccc(C(=O)NO)cc1)C(=O)Nc1ccccc1` [Nexturastat A, 4-[[Butyl[(phenylamino)carbonyl]amino]methyl]-N-hydroxybenzamide], the “number of platelets produced” value in the experiment on imMKCL [1] is “considerably suppress the number of platelets produced”. The “number of platelets produced on Day 6, concentration dependence” value with imMKCL [1] (shaking flask culture, 500 nM, 1 μM, or 2 μM added at start) is given as “decreases in an inhibitor concentration-dependent manner”; in the experiment with imMKCL [3] (static culture, 500 nM, 1 μM, or 2 μM added at start), “decreases in an inhibitor concentration-dependent manner”. Besides, the “platelet production (number of platelets on Day 6)” value in the experiment with imMKCL [1] (shaking flask culture, 2 μM added) is on record as “notable reduction in the platelet production”. The platelet production result in the experiment with imMKCL [1] (shaking flask culture, 2 μM added on Day 0 or Days 3 and 4 after gene off) is listed as “notable reduction in the platelet production”; in the experiment with imMKCL [1] (shaking flask culture, 2 μM added on Day 5 after gene off), “production equivalent to that in non-addition group”. Further, the “reduction of number of platelets produced” value in the experiment on imMKCL [3] (static culture (Dish), 2 μM added on Day 5) was “about 40%”. In addition, the degree of hypertrophy result with imMKCL [2] (Day 3, 2 μM) is given as “slightly lower than the group containing DMSO”. Moreover, the “cell morphology (apoptosis, hypertrophy)” value in the experiment with imMKCL [2] (2 μM) is reported as “Apoptosis was not recognized but cell hypertrophy was observed”. Moreover, the “PPF associated with megakaryocyte maturation” value with imMKCL [2] (2 μM) is recorded as “not recognized”. Moreover, the “known HDAC inhibition” value on HDAC6 was “specifically inhibit HDAC6”.

(Values after US11952587B2, “Method for producing platelets” (KYOTO UNIVERSITY, priority 2017, dated 2024).)
